Test [1] deals with T1, human PCFT (SLC46A1) (Homo sapiens, UniProt Q96NT5).
T1 sequence (Q96NT5 1-459): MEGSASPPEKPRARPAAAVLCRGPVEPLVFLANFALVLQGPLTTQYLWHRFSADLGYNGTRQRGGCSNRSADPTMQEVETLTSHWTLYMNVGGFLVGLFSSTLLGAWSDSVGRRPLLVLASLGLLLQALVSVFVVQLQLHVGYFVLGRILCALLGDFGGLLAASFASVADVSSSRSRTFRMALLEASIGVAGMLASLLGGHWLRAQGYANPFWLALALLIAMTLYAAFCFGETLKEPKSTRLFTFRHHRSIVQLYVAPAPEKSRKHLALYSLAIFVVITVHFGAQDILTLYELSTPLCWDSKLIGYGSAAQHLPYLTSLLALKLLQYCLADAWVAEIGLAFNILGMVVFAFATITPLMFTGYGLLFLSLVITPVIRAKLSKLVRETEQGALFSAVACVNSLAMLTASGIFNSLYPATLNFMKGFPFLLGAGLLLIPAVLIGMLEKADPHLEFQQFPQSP
The experiment in a line: cell-based 3H-folic acid uptake at pH […] and […].

The target in test [2] is T2, PCFT (proton-coupled folate transporter, SLC46A1) (Gallus gallus, UniProt F1NJ67).
T2 sequence (F1NJ67 1-473): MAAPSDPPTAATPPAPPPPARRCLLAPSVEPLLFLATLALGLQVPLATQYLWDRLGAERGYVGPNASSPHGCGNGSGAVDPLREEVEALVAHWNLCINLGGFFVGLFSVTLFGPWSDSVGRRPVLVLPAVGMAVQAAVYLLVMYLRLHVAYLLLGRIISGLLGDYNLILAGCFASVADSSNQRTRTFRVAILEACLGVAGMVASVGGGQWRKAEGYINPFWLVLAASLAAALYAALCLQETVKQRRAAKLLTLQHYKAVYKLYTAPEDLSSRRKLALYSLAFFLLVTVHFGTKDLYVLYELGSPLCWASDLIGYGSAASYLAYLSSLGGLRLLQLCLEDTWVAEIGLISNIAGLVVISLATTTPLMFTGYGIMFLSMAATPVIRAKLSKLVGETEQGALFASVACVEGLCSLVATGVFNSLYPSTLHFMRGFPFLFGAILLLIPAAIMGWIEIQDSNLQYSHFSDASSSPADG
The experiment in a line: cryo-EM structure at […] Å. In kind it is cell-based.

Test [3] has as its target T3, biotinylated chicken PCFT with C-terminal Avi-tag (Gallus gallus (UniProt E6Y8U5 sequence), biotin on the C-terminal Avi-tag).
T3 chain: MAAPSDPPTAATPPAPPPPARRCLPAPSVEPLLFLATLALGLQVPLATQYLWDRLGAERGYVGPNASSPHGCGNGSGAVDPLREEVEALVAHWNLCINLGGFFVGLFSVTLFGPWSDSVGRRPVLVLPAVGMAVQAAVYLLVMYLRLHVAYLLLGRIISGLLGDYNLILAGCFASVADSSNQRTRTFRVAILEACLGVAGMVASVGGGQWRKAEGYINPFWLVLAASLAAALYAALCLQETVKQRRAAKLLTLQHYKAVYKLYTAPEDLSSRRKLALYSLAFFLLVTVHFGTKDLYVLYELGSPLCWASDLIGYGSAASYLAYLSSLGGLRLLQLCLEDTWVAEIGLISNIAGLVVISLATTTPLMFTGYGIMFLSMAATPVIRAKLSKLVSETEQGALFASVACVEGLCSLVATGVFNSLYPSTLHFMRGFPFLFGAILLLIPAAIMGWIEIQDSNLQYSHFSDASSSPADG
Description: BLI.

Turning to `Nc1nc(=O)c2nc(CNc3ccc(C(=O)N[C@@H](CCC(=O)O)C(=O)O)cc3)cnc2[nH]1` [FA, folic acid], in test [1], the “cell-based 3H-folic acid uptake at pH 5.5 and 7.5” value was “The human and chicken homologues transport similar amounts of folic acid to each other and do so only at acidic pH”.
As for `Nc1nc2[nH]cc(CCc3ccc(C(=O)N[C@@H](CCC(=O)O)C(=O)O)cc3)c2c(=O)[nH]1` [PMX, pemetrexed], the IC50 – broadly, the midpoint of a concentration-inhibition curve – in test [2] amounted to 900 nM.

B1: PCFT nanobody (high-affinity inhibitory nanobody from a naive llama library) (VHH)
VHH: QVQLVESGGGLVQPGGSLRLSCAASGFTFSRYWMYWVRQAPGKGPEWLSHMNPSGSDIKYTDSVKGRFTISRDNAKNTLYLQMNSLKPDDTAVYYCVADRRALGSPEYWGQGTQVTVSS
B1: the Kd (commonly the free concentration of one partner at which half of the binding sites on the other are occupied at equilibrium, for simple one-to-one binding) in test [3] is 8 nM.

The record behind these values is PMC9990147 (Nature, 2021).
